In patent US8188064B2, “Vitamin D analogs for obesity prevention and treatment” (Wisconsin Alumni Research Foundation, priority 2003, dated 2012):
“Also recorded” adds a separate entry of the source.

Columns and labels:
[1] = target: T1, full-length recombinant rat vitamin D receptor (Rattus norvegicus, UniProt P13053); assay: Vitamin D receptor binding (competition with 3H-1,25(OH)2D3); details: result in words, competition for tritiated hormone binding
T1 construct: Full-length recombinant rat receptor was expressed in E. coli; histidine tag (C); made in house; host or cells: E. coli BL21(DE3) Codon Plus RIL
T1 sequence (P13053 1-423): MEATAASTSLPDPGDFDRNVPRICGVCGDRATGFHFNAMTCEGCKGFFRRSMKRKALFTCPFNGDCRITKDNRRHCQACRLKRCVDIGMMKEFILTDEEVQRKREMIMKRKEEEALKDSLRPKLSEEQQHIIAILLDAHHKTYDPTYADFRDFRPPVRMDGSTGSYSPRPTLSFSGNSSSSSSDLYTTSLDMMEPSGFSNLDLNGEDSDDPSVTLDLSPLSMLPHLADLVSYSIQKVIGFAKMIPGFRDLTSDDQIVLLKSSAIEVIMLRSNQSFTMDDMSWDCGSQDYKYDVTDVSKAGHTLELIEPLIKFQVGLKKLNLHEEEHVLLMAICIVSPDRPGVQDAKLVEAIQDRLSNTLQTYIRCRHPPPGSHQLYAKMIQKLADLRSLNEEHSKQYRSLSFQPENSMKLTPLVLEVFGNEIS
Procedure: Full-length recombinant rat receptor was expressed in E. coli BL21(DE3) Codon Plus RIL cells and purified to homogeneity using two different column chromatography systems. The first system was a nickel affinity resin that utilizes the C-terminal histidine tag on this protein. The protein that was eluted from this resin was further purified using ion exchange chromatography (S-Sepharose Fast Flow). Aliquots of the purified protein were quick frozen in liquid nitrogen and stored at −80° C. until use. For use in binding assays, the protein was diluted in TEDK50 (50 mM Tris, 1.5 mM EDTA, pH 7.4, 5 mM DTT, 150 mM KCl) with 0.1% Chaps detergent. The receptor protein and ligand concentration was optimized such that no more than 20% of the added radiolabeled ligand was bound to the receptor.
Unlabeled ligands were dissolved in ethanol and the concentrations determined using UV spectrophotometry (1,25(OH)2D3: molar extinction coefficient=18,200 and λmax=265 nm; Analogs: molar extinction coefficient=42,000 and λmax=252 nm). Radiolabeled ligand (^3H-1,25(OH)2D3, ˜159 Ci/mmole) was added in ethanol at a final concentration of 1 nM.
Radiolabeled and unlabeled ligands were added to 100 mcl of the diluted protein at a final ethanol concentration of ≦10%, mixed and incubated overnight on ice to reach binding equilibrium. The following day, 100 mcl of hydroxylapatite slurry (50%) was added to each tube and mixed at 10-minute intervals for 30 minutes. The hydroxylapaptite was collected by centrifugation and then washed three times with Tris-EDTA buffer (50 mM Tris, 1.5 mM EDTA, pH 7.4) containing 0.5% Titron X-100. After the final wash, the pellets were transferred to scintillation vials containing 4 ml of Biosafe II scintillation cocktail, mixed and placed in a scintillation counter. Total binding was determined from the tubes containing only radiolabeled ligand.

SCD-1 mRNA = assay: Inhibition of SCD-1 mRNA induction in 3T3-L1 cells (RT-PCR); type: cell-based, murine; details: for inhibition of SCD-1 mRNA induction: result in words, MDI-treated 3T3-L1 cells; for inhibition of SCD1 mRNA induction: tested at 1×10^−8.5 M
Text: Chomczynski, P. et al., Anal. […] NO: 4)).

[2] = Intestinal calcium transport (everted gut sac); type: in vivo; details: result in words, vitamin D deficient rat model, compared to 1α,25(OH)2D3
Procedure: (§1) Male, weanling Sprague-Dawley rats were placed on Diet 11 (0.47% Ca) diet+AEK for one week followed by Diet 11 (0.02% Ca)+AEK for 3 weeks. The rats were then switched to a diet containing 0.47% Ca for one week followed by two weeks on a diet containing 0.02% Ca. Dose administration began during the last week on 0.02% calcium diet. Four consecutive ip doses were given approximately 24 hours apart. Twenty-four hours after the last dose, blood was collected from the severed neck and the concentration of serum calcium determined as a measure of bone calcium mobilization. The first 10 cm of the intestine was also collected for intestinal calcium transport analysis using the everted gut sac method.

[3] = Bone calcium mobilization (serum calcium on low calcium diet); type: in vivo, rat; details: result in words; vitamin D deficient rat model, compared to 1α,25(OH)2D3
Procedure: as §1

[4] = test system: 24-hydroxylase (24Ohase) gene promoter in ROS 17/2.8 (bone) cells; assay: In vitro transcription assay (luciferase reporter); type: cell-based; details: result in words
Procedure: Transcription activity was measured in ROS 17/2.8 (bone) cells that were stably transfected with a 24-hydroxylase (24Ohase) gene promoter upstream of a luciferase reporter gene (Arbour et al., 1998). Cells were given a range of doses. Sixteen hours after dosing the cells were harvested and luciferase activities were measured using a luminometer. RLU=relative luciferase units.

[5] = test system: Human promyelocytic leukemia (HL60) cells; assay: HL-60 differentiation (nitro blue tetrazolium reduction); type: cell-based; details: for cells induced to differentiate in the NBT assay: concentration 1×10^−7 M; for differentiation of HL-60 cells, compared to 1α,25(OH)2D3: result in words
Procedure: The study drugs were dissolved in ethanol and the concentrations determined using UV spectrophotometry. Serial dilutions were prepared so that a range of drug concentrations could be tested without changing the final concentration of ethanol (≦0.2%) present in the cell cultures.
Human promyelocytic leukemia (HL60) cells were grown in RPMI-1640 medium containing 10% fetal bovine serum. The cells were incubated at 37° C. in the presence of 5% CO2.
HL60 cells were plated at 1.2×10^5 cells/ml. Eighteen hours after plating, cells in duplicate were treated with drug. Four days later, the cells were harvested and a nitro blue tetrazolium reduction assay was performed (Collins et al., 1979; J. Exp. Med. 149:969-974). The percentage of differentiated cells was determined by counting a total of 200 cells and recording the number that contained intracellular black-blue formazan deposits. Verification of differentiation to monocytic cells was determined by measuring phagocytic activity (data not shown).

3T3-L1 cells = assay: Inhibition of 3T3-L1 differentiation into mature adipocytes (Oil-Red-O staining); type: cell-based, murine; details: for inhibition of differentiation of 3T3-L1 cells into mature adipocytes (Oil-Red-O staining): result in words, MDI-treated cells, staining at day 10; for inhibition of differentiation of MDI-treated 3T3-L1 cells (oil-red-O staining): tested at 1×10^−8.5 M
Procedure: Various 19-nor vitamin D analogs were or are tested and found to inhibit the differentiation of preadipocytes into mature adipocytes, to reduce body fat, to inhibit an increase in PPARγ, C/EBPα, and/or SCD-1 gene transcription and to be useful in treating and preventing obesity both in vivo and in vitro. The undifferentiated preadipocyte 3T3-L1 subline, a derivative of the original mouse fibroblast cell line, is one of the most accepted models for investigating the adipogenesis process and was used for the analysis. Two days after reaching confluence, 3T3-L1 cells can be induced to differentiate into adipocytes (see Mackall, J. C. et al. J. Biol. Chem., 251(20), 6462-6464 (1976)) with the addition of a cAMP phosphodiesterase inhibitor, dexamethasone (a glucocortoid), and insulin. […] The induction of PPARγ and C/EBPα is required for adipocyte differentiation. […] SCD-1 is an enzyme found in adipocytes that converts saturated fatty acids (C16 and C18) to their monounsaturated forms (C16:1 and C18:1). The deposition of triglyceride can also be detected as early as 3 days, and by the 7th to 14th days post-confluence, greater than 80% of the cells in the monolayer stain positively with Oil-red-O.

[6] = Hypercalcemia / serum calcium analysis; type: in vivo, rat; details: normal vitamin D sufficient rats, very high oral doses

Structure (SMILES) | binding to the vitamin D receptor, compared to 1α,25(OH)2D3 [1] | inhibition of SCD-1 mRNA induction (SCD-1 mRNA) | intestinal calcium transport activity [2] | bone calcium mobilization activity [3] | transcriptional activity in bone cells, compared to 1α,25(OH)2D3 [4] | cells induced to differentiate in the NBT assay [5] | differentiation of HL-60 cells, compared to 1α,25(OH)2D3 [5] | inhibition of differentiation of 3T3-L1 cells into mature adipocytes (Oil-Red-O staining) (3T3-L1 cells) | inhibition of SCD1 mRNA induction (SCD-1 mRNA) | inhibition of differentiation of MDI-treated 3T3-L1 cells (oil-red-O staining) (3T3-L1 cells) | further results
CC(CCCC(C)(C)O)C1CCC2C(=CC=C3CC(O)C(=CCCO)C(O)C3)CCCC21C (stereo not shown) [1AGS] | very active | nearly equipotent; also recorded: active | relatively high intestinal calcium transport activity; also recorded: active | significant ability to mobilize calcium from bone; also recorded: active | significant transcriptional activity | same degree of differentiation | as potent as | nearly equipotent; also recorded: highest activity; also recorded: so much greater; also recorded: active | – | – | binding to the vitamin D receptor, compared to 1α,25(OH)2D3 ([1]; listed as AGS): less than five times less potent; inhibition of differentiation of 3T3-L1 cells into mature adipocytes (Oil-Red-O staining) (3T3-L1 cells; listed as LAGS): slightly more active
C=C1[C@H](O)CC(=C/C=C2\CCC[C@]3(C)[C@@H](C(C)C)CC[C@@H]23)C[C@H]1O [2-MP] | as or nearly effective as calcitriol | nearly as potent as the native hormone | little, if any, activity | little, if any, activity | – | – | – | nearly as potent as the native hormone | active | active | inhibition of SCD-1 mRNA induction (SCD-1 mRNA; listed as 2MP): still active; increase in serum calcium [6]: without producing an increase in serum calcium; inhibition of differentiation of 3T3-L1 cells into mature adipocytes (Oil-Red-O staining) (3T3-L1 cells; listed as 2MP): still active
C=C1[C@H](O)CC(=C/C=C2\CCC[C@]3(C)[C@@H]([C@@H](C)CCCC)CC[C@@H]23)C[C@H]1O [(20S)OM] | as or nearly effective as calcitriol | still possess activity | – | very little bone calcium mobilization activity | about the same transcriptional activity | – | almost as potent | still possess activity | – | – | binding to the vitamin D receptor, compared to 1α,25(OH)2D3 ([1]; listed as OM): bound equally well; inhibition of SCD-1 mRNA induction (SCD-1 mRNA; listed as OM): increased slightly; intestinal calcium transport activity ([2]; listed as (20S)-OM): less activity; intestinal calcium transport activity ([2]; listed as OM): very little activity; inhibition of differentiation of 3T3-L1 cells into mature adipocytes (Oil-Red-O staining) (3T3-L1 cells; listed as OM): increased slightly
COCOCCC=C1C(O)CC(=CC=C2CCCC3(C)C2CCC3C(C)CCCC(C)(C)O)CC1O (stereo not shown) [F-Wit] | very active; also recorded: less than five times less potent | active | relatively high intestinal calcium transport activity; also recorded: active | significant ability to mobilize calcium from bone; also recorded: active | significant transcriptional activity | same degree of differentiation | as potent as | also active | – | – | –
C=C1[C@H](O)CC(=C/C=C2\CCC[C@@H]3[C@@H]([C@@H](C)CCCC(C)(C)O)CC[C@@H]23)C[C@H]1O [VD-03] | very active; also recorded: as well as the native hormone | active | about as active as; also recorded: approximately the same activity | relatively low ability | higher transcriptional activity | – | high potency | active | – | – | fold more active than the native hormone 1α,25-(OH)2D3 in inhibition of adipocyte differentiation (3T3-L1 cells; Oil-Red-O staining): approximately 10 fold
C=C1[C@H](O)CC(=C/C=C2\CCC[C@]3(C)C(=C(C)C)CC[C@@H]23)C[C@H]1O [VIT-I] | bound equally well; also recorded: as well as the native hormone | – | very little activity; also recorded: less activity | very little bone calcium mobilization activity | about the same transcriptional activity | – | almost as potent | has activity | active | active | –
